No end group written: not given here.
Columns and labels:
LX-2 cells = test: Proliferation of LX-2 cells induced by TGF-β1 (MTT, in vitro hepatic fibrosis model); format: cell-based; settings: polypeptide 1 μmol/L, TGF-β1 10 ng/mL, 48 hours
Protocol: LX-2 cells were cultured in 1640 medium containing 10% FBS, and cultured in an incubator with 5% CO2 at 37° C. The medium was replaced every two days, and subcultured according to the cell density. The LX-2 cells in a logarithmic growth phase were digested with 0.25% pancreatin to make cell suspension. The density of the cells was adjusted to 4×10^5 cells/mL, and the cells were inoculated into 96-well plates with 100 μL per well and cultured overnight. On the second day, TGF-β1 was added to induce the proliferation and activation of the LX-2 cells, and the polypeptide drugs were administrated at 1 μmol/L. TGF-β1 (10 ng/mL) was added to each group except the blank group. The cells were cultured in the incubator for 48 hours, and then 10 μL of MTT was added to each well. The MTT was removed after 4 hours, and 150 μL of DMSO was added for reaction for 5 min. An OD value was measured by a microplate reader at 570 nm.

adenovirus = test: Mouse pneumonia model, viral pneumonia; format: in vivo, BALB/C mice; settings: average values±standard deviation
Text: (§1) A mouse pneumonia model was successfully established by using a nasal drip method. BALB/C mice with a body weight of 18-24 g were selected, and then anesthetized with ether on day 0, day 1 and day 2, respectively, prepared streptococcus pneumoniae bacteria solution, adenovirus concentrated solution, mycoplasma pneumoniae, chlamydia pneumoniae, protozoa and pneumonia fungi were slowly dropped into the nasal cavity of the mice, so that the bacteria solutions entered the trachea and bronchi, and the bacteria solutions were prevented from flowing into the esophagus during the operation to avoid inactivation of the bacteria solutions, so that the mouse pneumonia model was established. After the model was successfully established, the polypeptide according to the present disclosure was administered, as shown in FIG. 7 and Table 9. […] The experimental results are represented on the basis of average values±standard deviation.

myelofibrosis model mice = test: Myelofibrosis model induced by rh EPO; format: in vivo, Kunming mice; set-up: WBC / Hb / MCV / RDW: unit not given here; settings: 10 mg/kg subcutaneous twice a day, 28 days
Protocol: There were 10 mice in each group. The normal control group was injected with normal saline (0.3 mL for each mouse), and the remaining groups were injected with rh EPO (0.1 unit/gram, body weight, 0.3 mL for each mouse) intraperitoneally every day. After induction for two days, drug therapy was started, subcutaneous injection was given twice a day, and after continuous administration for 28 days, the mouse heart was punctured for blood extraction, some blood was used for peripheral blood analysis, some blood was centrifuged, and the supernatant was taken to measure the content of TGF-β1 in the serum of mice. [table]

[1] = system: cardiac fibroblasts of rats; test: Proliferation of cardiac fibroblasts of rats (MTT, in vitro myocardial fibrosis model); format: cell-based; settings: 1 μmol/L
Protocol: The inhibitory effect of a polypeptide on cardiac fibroblasts of rats was detected by MTT assay. Cells were cultured in a DMEM medium containing 10% of FBS, the cytoplasm was made into 1×10^5/mL cell suspension, and 100 μL per well was inoculated into a 96-well plate. After the cells adhered to the wall, the medium was replaced with a serum-free DMEM medium, and the serum-free medium was discarded after 24 hours. The cells were cultured with different polypeptides of 1 μmol/L, and 5 multiple wells were set for each concentration. After 12, 24 and 48 hours separately, 10 μL of MTT was added to each well. After 4 hours, MTT was sucked out, and 150 μL of DMSO was added to each well. After reaction for 5 min, an OD value was measured at 570 nm by a microplate reader.

protozoa = test: Mouse pneumonia model, protozoal pneumonia; format: in vivo, BALB/C mice; settings: average values±standard deviation
Text: as §1

[2] = system: SD rats with renal fibrosis; test: Renal fibrosis animal model (ureter ligation), TGF-β1 in serum; format: in vivo; settings: 7.5 mg/kg subcutaneous twice a day, 14 days, vs model group; FIG. 4
Protocol: A renal fibrosis animal model was established. SD rats were anesthetized with 4% chloral hydrate, injected with 1 mL/100 g intraperitoneally, fixed to an operation board, and sterilized in an operation area for later use. […] Muscular layers and abdominal walls were sewed layer by layer, the suture was disinfected with alcohol. After SD rats woke up, the rats were put into a cage for feeding. In the blank group, ureter was not ligated, and other steps were the same. Then, the animals fell into a blank group, a model group, and polypeptide administration groups, and the administration was started on the second day after the operation, twice a day for 14 days. After administration for 14 days, blood was taken and supernatant was taken to detect the content of TGF-β1 in serum. [table]

pulmonary infections = test: Mouse pneumonia model, pneumonia caused by pulmonary infections; format: in vivo, BALB/C mice; settings: average values±standard deviation
Text: as §1

chlamydia pneumoniae = test: Mouse pneumonia model, chlamydia pneumonia; format: in vivo, BALB/C mice; settings: average values±standard deviation
Text: as §1

pneumonia fungi = test: Mouse pneumonia model, fungal pneumonia; format: in vivo, BALB/C mice; settings: average values±standard deviation
Text: as §1

skin fibrosis model mice = test: Skin fibrosis model induced by bleomycin, HYP in skin tissue; format: in vivo, C57/BL black mice; settings: skin tissue of the mouse back; 10 mg/kg subcutaneous twice a day, 28 days, vs model group; FIG. 6
Protocol: Bleomycin (10 μg/mL) was injected subcutaneously every day for 28 days to form skin fibrosis. During the modeling period, the administration groups were given polypeptide drugs every day for treatment, with 10 mice in each group. After modeling, the mice were killed on the next day, and the skin tissue of the mouse back was taken to detect the content of HYP in the skin tissue. [table]

mycoplasma pneumoniae = test: Mouse pneumonia model, mycoplasma pneumonia; format: in vivo, BALB/C mice; settings: average values±standard deviation
Text: as §1

[3] = system: SD rats with bleomycin-induced pulmonary fibrosis; test: Bleomycin-induced pulmonary fibrosis animal model; format: in vivo; settings: bleomycin 5 mg/kg intratracheal, polypeptides 7.5 mg/kg subcutaneous twice a day, positive drug 25 mg/kg intragastric once a day, 14 days
Protocol: SD rats were anesthetized by intraperitoneal injection of 1 mL/100 g 4% chloral hydrate. After anesthesia, the rats were fixed and their necks were disinfected by using cotton with 75% alcohol. The skin of the rat neck was longitudinally cut with scissors, and the fascia and muscle were longitudinally bluntly torn with tweezers to expose the trachea. A syringe was inserted into the trachea to inject 5 mg/kg bleomycin, while a blank group was injected with an equal amount of normal saline. Then a rat plate was quickly erected and rotated, the rats' breathing was observed, the neck wound was sterilized after rotation and was sewn, and an amoxicillin anti-inflammatory drug was sprinkled on the suture. After the operation, the rats were put back into a dry and clean cage for resting, waiting was performed for awakening. The rats were awakened after about 1-2 hours, and then fed normally. On the 7th day after modeling, modeling group animals randomly fell into a model group, a Nintedanib positive drug group, polypeptide I, II, III and IV dosage groups, and a normal control group, and the groups were administered separately for an administration cycle of 14 days. Living situations of rats were observed every day and their weights were weighed.

streptococcus pneumoniae = test: Mouse pneumonia model, bacterial pneumonia; format: in vivo, BALB/C mice; settings: average values±standard deviation
Text: as §1

RGADRAGGGGPRCYRGE [Polypeptide III]
inhibition of proliferation and activation of LX-2 cells, difference from model group (LX-2 cells): significantly different from the model group (*P<0.05)
OD value (LX-2 cells; MTT, 570 nm): 0.63 ± 0.03
Inhibitory effect on pulmonary infections, Viral pneumonia (adenovirus): 65.49 ± 9.94
content of TGF-β1 in serum (myelofibrosis model mice; mouse serum, vs model group, FIG. 5): highly significantly different from the model group (**P<0.01)
Hb (myelofibrosis model mice; peripheral blood): 145 ± 17
MCV (myelofibrosis model mice; peripheral blood): 53 ± 8
RDW (myelofibrosis model mice; peripheral blood): 28 ± 1
WBC (myelofibrosis model mice; peripheral blood): 5.79 ± 1.23
Optical density values, 12 hours ([1]; 12 hours, MTT, 570 nm): 0.329 ± 0.012
Optical density values, 24 hours ([1]; 24 hours, MTT, 570 nm): 0.402 ± 0.012
Optical density values, 48 hours ([1]; 48 hours, MTT, 570 nm): 0.612 ± 0.018
inhibition of the proliferation of cardiac fibroblasts of rats ([1]; at 24 hours and 48 hours): could inhibit the proliferation
Inhibitory effect on pulmonary infections, Protozoal pneumonia (protozoa): 64.29 ± 8.07
content of TGF-β1 in serum [2]: highly significantly different from the model group (**P<0.01)
Inhibitory effect on pulmonary infections, Pneumonia caused by pulmonary infections (pulmonary infections): 56.18 ± 3.31
Inhibitory effect on pulmonary infections, Chlamydia pneumonia (chlamydia pneumoniae): 54.40 ± 5.41
Inhibitory effect on pulmonary infections, Fungal pneumonia (pneumonia fungi): 62.88 ± 5.49
expression of HYP in the skin tissue (skin fibrosis model mice): highly significantly different from the model group (*P<0.05)
Inhibitory effect on pulmonary infections, Mycoplasma pneumonia (mycoplasma pneumoniae): 43.93 ± 5.34
Survival rate (%) [3]: 78.6%
Inhibitory effect on pulmonary infections, Bacterial pneumonia (streptococcus pneumoniae): 42.29 ± 8.76

— patent US12404303B2, “Polypeptide and use thereof” (NANJING ANJI BIOLOGICAL TECHNOLOGY CO., LTD., priority 2019, dated 2025)
